Reference: ChEMBL document CHEMBL3580625, “The synthesis and functional evaluation of a mitochondria-targeted hydrogen sulfide donor, (10-oxo-10-(4-(3-thioxo-3H-1,2-dithiol-5-yl)phenoxy)decyl)triphenylphosphonium bromide (AP39)” (Medchemcomm, 2014)
The source made the active and inactive calls. The calls are words filed in the database; no cut-off is given here.

Tests used:
hCMEC/D3 [1] = experiment: Induction of H2S production in human CMEC/D3 cells after 1 hr by WSP-1 probe-based fluorescence assay; format: functional, cell-based
Mus musculus [2] = species on record: Mus musculus; experiment: Induction of H2S production in mouse bEND.3 cells at 100 nM after 1 hr by AzMC fluorescent probe-based inverted microscopic analysis; format: functional, cell-based
Mus musculus [3] = species on record: Mus musculus; experiment: Induction of H2S production in mitochondria of mouse bEND.3 cells at 100 nM after 1 hr by MitoTracker Red fluorescent probe-based inverted microscopic analysis; format: functional
[4] = Cytotoxicity against human CMEC/D3 cells up to 5 uM after 24 hrs by Alamar blue assay relative to vehicle-treated control; format: cell-based; conditions: hcmec/d3, 24 h
hCMEC/D3 [5] = experiment: Cytoprotective activity in human CMEC/D3 cells assessed as inhibition of SIN-1-induced oxidative stress-mediated loss of mitochondrial membrane potential at 100 nM preincubated for 1 hr followed by SIN-1 induction measured after 24 hrs by TMRM fluorescent probe-based fluorimetric analysis; format: functional, cell-based
hCMEC/D3 [6] = experiment: Cytoprotective activity in human CMEC/D3 cells assessed as inhibition of H2O2-induced oxidative stress-mediated loss of mitochondrial membrane potential at 100 nM preincubated for 1 hr followed by H2O2 induction measured after 24 hrs by TMRM fluorescent probe-based fluorimetric analysis; format: functional, cell-based
hCMEC/D3 [7] = experiment: Cytoprotective activity in human CMEC/D3 cells assessed as inhibition of 4-HNE-induced oxidative stress-mediated loss of mitochondrial membrane potential at 100 nM preincubated for 1 hr followed by 4-HNE induction measured after 24 hrs by TMRM fluorescent probe-based fluorimetric analysis; format: functional, cell-based
hCMEC/D3 [8] = experiment: Cytoprotective activity in human CMEC/D3 cells assessed as inhibition of SIN-1-induced mitochondrial production of reactive oxygen species at 100 nM preincubated for 1 hr followed by SIN-1 induction measured after 24 hrs by MitoSox Red probe-based fluorescence assay; format: functional, cell-based
hCMEC/D3 [9] = experiment: Cytoprotective activity in human CMEC/D3 cells assessed as inhibition of H2O2-induced mitochondrial production of reactive oxygen species at 100 nM preincubated for 1 hr followed by H2O2 induction measured after 24 hrs by MitoSox Red probe-based fluorescence assay; format: functional, cell-based
hCMEC/D3 [10] = experiment: Cytoprotective activity in human CMEC/D3 cells assessed as inhibition of 4-HNE-induced mitochondrial production of reactive oxygen species at 100 nM preincubated for 1 hr followed by 4-HNE induction measured after 24 hrs by MitoSox Red probe-based fluorescence assay; format: functional, cell-based
[11] = Cytotoxicity against human CMEC/D3 cells assessed as effect on mitochondrial membrane potential at 100 nM by TMRM fluorescent probe-based fluorimetric analysis; format: cell-based; conditions: hcmec/d3, 0.1 µM
[12] = Cytotoxicity against human CMEC/D3 cells assessed as effect on mitochondrial oxidant production at 100 nM by MitoSox Red probe-based fluorescence assay; format: cell-based; conditions: hcmec/d3, 0.1 µM
hCMEC/D3 [13] = experiment: Cytoprotective activity in human CMEC/D3 cells assessed as inhibition of rotenone-induced mitochondrial production of reactive oxygen species at 100 nM preincubated for 1 hr followed by rotenone induction by MitoSox Red probe-based fluorescence assay; format: functional, cell-based
hCMEC/D3 [14] = experiment: Cytoprotective activity in human CMEC/D3 cells assessed as inhibition of rotenone-mediated reduction of ATP level at 100 nM preincubated for 1 hr followed by rotenone induction measured after 18 hrs by firefly lantern luciferase reporter assay; format: functional, cell-based
hCMEC/D3 [15] = experiment: (§1) Cytoprotective activity in human CMEC/D3 cells assessed as inhibition of SIN-1-induced oxidative stress-mediated toxicity by measuring cell viability at 100 nM preincubated for 1 hr followed by SIN-1 induction measured after 24 hrs by Alamar blue assay; format: functional, cell-based
hCMEC/D3 [16] = experiment: (§2) Cytoprotective activity in human CMEC/D3 cells assessed as inhibition of H2O2-induced oxidative stress-mediated toxicity by measuring cell viability at 100 nM preincubated for 1 hr followed by H2O2 induction measured after 24 hrs by Alamar blue assay; format: functional, cell-based
hCMEC/D3 [17] = experiment: (§3) Cytoprotective activity in human CMEC/D3 cells assessed as inhibition of 4-HNE-induced oxidative stress-mediated toxicity by measuring cell viability at 100 nM preincubated for 1 hr followed by 4-HNE induction measured after 24 hrs by Alamar blue assay; format: functional, cell-based
hCMEC/D3 [18] = experiment: as §1, with “assay in presence of 5-(4-hydroxyphenyl)-3H-1,2-dithiole-3-thione” for “assay”; format: functional, cell-based
hCMEC/D3 [19] = experiment: as §2, with “assay in presence of 5-(4-hydroxyphenyl)-3H-1,2-dithiole-3-thione” for “assay”; format: functional, cell-based
hCMEC/D3 [20] = experiment: as §3, with “assay in presence of 5-(4-hydroxyphenyl)-3H-1,2-dithiole-3-thione” for “assay”; format: functional, cell-based

Row | SMILES | Activity (hCMEC/D3 [1]) | Activity (Mus musculus [2]) | Activity (Mus musculus [3]) | Activity [4] | inhibition (hCMEC/D3 [5]) | inhibition (hCMEC/D3 [6]) | inhibition (hCMEC/D3 [7]) | inhibition (hCMEC/D3 [8]) | inhibition (hCMEC/D3 [9]) | inhibition (hCMEC/D3 [10]) | Activity [11] | Activity [12] | inhibition (hCMEC/D3 [13]) | inhibition (hCMEC/D3 [14]) | inhibition (hCMEC/D3 [15]) | inhibition (hCMEC/D3 [16]) | inhibition (hCMEC/D3 [17]) | inhibition (hCMEC/D3 [18]) | inhibition (hCMEC/D3 [19]) | inhibition (hCMEC/D3 [20])
1 | O=C(CCCCCCCCC[P+](c1ccccc1)(c1ccccc1)c1ccccc1)Oc1ccc(-c2cc(=S)ss2)cc1.[Br-] | Dose-dependent effect | Active | Active | Non-toxic | Active | Active | Active | Active | Active | Active | Non-toxic | Non-toxic | Active | Active | – | – | – | – | – | –
2 | Oc1ccc(-c2cc(=S)ss2)cc1 | – | – | – | – | – | – | – | – | – | – | – | – | – | – | inactive | inactive | inactive | – | – | –
3 | O=C(O)CCCCCCCCC[P+](c1ccccc1)(c1ccccc1)c1ccccc1 | – | – | – | – | – | – | – | – | – | – | – | – | – | – | inactive | inactive | inactive | inactive | inactive | inactive
